Assays:
[1] = target: LRRK2, WT (GST-tagged truncated LRRK2) (Homo sapiens (Human), UniProt Q5S007); test: LRRK2 kinase assay (Lantha Screen), wild type; format: biochemical; details: 100 nM LRRKtide, 1 mM ATP, 2 μg/mL enzyme; geometric mean of 2-4 determinations unless otherwise indicated
Protocol: (§1) LRRK2 kinase activity was measured using Lantha Screen technology from Invitrogen. GST-tagged truncated LRRK2 from Invitrogen (Cat #PV4874) was incubated with a fluorescein-labeled peptide substrate based upon ezrin/radixin/moesin (ERM), also known as LRRKtide (Invitrogen cat #PR8976A), in the presence of a dose response of compound. Upon completion, the assay was stopped and detected with a terbium labeled anti-phospho-ERM antibody (Invitrogen, cat #PR8975A). The assay was carried out under the following protocol: The compound dose response was prepared by diluting compound to a top concentration of 0.3 mM in 100% DMSO and serial diluted by half-log in DMSO to give an 11 point curve, 100× final assay concentration. Using Echo acoustic dispensing, 60 nL of compound was transferred to a low volume Corning 384-well assay plate. 3 μL of a working solution of substrate (200 nM LRRKtide, 2 mM ATP) prepared in assay buffer (50 mM HEPES, pH 7.5, 3 mM MgCl2, with 2 mM DTT and 0.01% Brij35 added fresh) was added to the 60 nL compound assay plate. The kinase reaction was started with 3 μL of a working solution of LRRK2 enzyme at a concentration of 4 μg/mL. The final reaction concentrations were 100 nM LRRKtide, 1 mM ATP, 2 μg/mL LRRK2 enzyme and a compound dose response with a top dose of 3 μM. The reaction was allowed to progress at room temperature for 30 minutes and then stopped with the addition of 6 μL of detection buffer (20 mM Tris pH 7.6, 0.01% NP-40, 6 mM EDTA with 2 nM terbium labeled anti-phospho-ERM). After an incubation of 1 hour at room temperature, the plate was read on an Envision with an excitation wavelength of 340 nm and a reading emission at both 520 nm and 495 nm. The ratio of the 520 nm and 495 nm emission was used to analyze the data. Inhibition of mutant G2019S LRRK2 (Invitrogen cat #PV4881) was measured in the exact same method. All final concentrations of substrate ATP and enzyme were the same.

mutant G2019S LRRK2 = mutant G2019S LRRK2 (Homo sapiens (Human), UniProt Q5S007, G2019S); test: LRRK2 kinase assay (Lantha Screen), mutant G2019S; format: biochemical; details: 100 nM LRRKtide, 1 mM ATP, 2 μg/mL enzyme; single determination unless otherwise indicated
Protocol: as §1

Sequence of mutant G2019S LRRK2 (Q5S007 970-2527 G2019S): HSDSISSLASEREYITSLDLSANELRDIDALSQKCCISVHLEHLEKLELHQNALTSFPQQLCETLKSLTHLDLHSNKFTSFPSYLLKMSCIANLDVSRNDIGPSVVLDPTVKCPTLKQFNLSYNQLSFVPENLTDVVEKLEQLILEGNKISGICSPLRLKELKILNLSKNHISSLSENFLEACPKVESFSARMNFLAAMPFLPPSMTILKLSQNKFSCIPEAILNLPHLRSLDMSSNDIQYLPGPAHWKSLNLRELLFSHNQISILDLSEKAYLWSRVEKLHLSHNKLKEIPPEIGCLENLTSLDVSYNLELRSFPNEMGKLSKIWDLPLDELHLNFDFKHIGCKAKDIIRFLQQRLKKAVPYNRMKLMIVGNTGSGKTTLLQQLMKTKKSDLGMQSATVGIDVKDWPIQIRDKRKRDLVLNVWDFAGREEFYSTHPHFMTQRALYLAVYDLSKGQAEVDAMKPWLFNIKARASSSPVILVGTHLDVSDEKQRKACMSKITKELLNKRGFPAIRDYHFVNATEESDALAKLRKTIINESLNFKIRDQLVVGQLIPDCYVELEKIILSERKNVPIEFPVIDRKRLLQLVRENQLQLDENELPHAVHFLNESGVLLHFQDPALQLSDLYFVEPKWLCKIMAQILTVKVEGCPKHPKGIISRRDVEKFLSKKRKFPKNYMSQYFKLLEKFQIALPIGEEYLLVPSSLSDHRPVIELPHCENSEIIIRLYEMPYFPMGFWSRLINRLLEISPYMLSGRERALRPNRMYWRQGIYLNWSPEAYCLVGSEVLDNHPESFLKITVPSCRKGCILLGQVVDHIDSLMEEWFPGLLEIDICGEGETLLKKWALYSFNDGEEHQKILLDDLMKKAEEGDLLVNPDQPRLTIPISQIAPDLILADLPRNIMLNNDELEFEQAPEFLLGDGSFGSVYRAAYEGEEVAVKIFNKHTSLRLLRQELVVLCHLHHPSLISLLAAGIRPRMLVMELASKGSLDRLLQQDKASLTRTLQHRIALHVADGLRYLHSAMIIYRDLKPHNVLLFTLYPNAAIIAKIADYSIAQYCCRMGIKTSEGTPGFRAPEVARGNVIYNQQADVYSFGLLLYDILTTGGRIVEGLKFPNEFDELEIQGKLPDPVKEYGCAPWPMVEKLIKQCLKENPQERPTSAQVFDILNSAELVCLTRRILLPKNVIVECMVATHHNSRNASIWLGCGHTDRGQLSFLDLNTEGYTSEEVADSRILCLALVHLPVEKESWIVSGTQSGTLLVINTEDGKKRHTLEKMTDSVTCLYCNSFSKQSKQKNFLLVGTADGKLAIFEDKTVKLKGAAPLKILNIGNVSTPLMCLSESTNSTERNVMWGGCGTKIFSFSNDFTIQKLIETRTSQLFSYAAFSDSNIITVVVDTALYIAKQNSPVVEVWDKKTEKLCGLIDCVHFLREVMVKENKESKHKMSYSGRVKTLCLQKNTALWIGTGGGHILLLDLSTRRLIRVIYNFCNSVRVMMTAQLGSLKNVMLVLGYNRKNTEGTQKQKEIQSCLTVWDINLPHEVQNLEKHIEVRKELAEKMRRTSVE
Sequence of LRRK2, WT (GST-tagged truncated LRRK2) (Q5S007 970-2527): as the sequence (Q5S007 970-2527 G2019S) above, with S1050G counted along it

Compound	IC50 [1] [nM]	IC50 (mutant G2019S LRRK2) [nM]
C[C@@H]1C[C@H](n2c3c(cnc4ccc(C#N)cc43)nc2[C@H]2C[C@@H](F)C2)CCO1 [Example 19, 2-(cis-3-fluorocyclobutyl)-1-[(2R,4R)-2-methyltetrahydro-2H-pyran-4-yl]-1H-imidazo[4,5-c]quinoline-8-carbonitrile]	16.1	12.4
C[C@@H]1C[C@H](n2c(C3CCCCC3(F)F)nc3cnc4ccc(C#N)cc4c32)CCO1 (stereo partly drawn) [Example 20, 2-(2,2-difluorocyclohexyl)-1-[(2R,4R)-2-methyltetrahydro-2H-pyran-4-yl]-1H-imidazo[4,5-c]quinoline-8-carbonitrile]	17.7	10.4
N#CC[C@@H]1C[C@H](n2c3c(cnc4ccc(F)cc43)nc2[C@H]2CC[C@@H](F)CC2)CCO1 [Example 29, {(2S,4R)-4-[8-fluoro-2-(cis-4-fluorocyclohexyl)-1H-imidazo[4,5-c]quinolin-1-yl]tetrahydro-2H-pyran-2-yl}acetonitrile]	6.53	4.63
C[C@@H]1C[C@H](n2c([C@H]3CCOC3)nc3cnc4ccc(C#N)cc4c32)CCO1 [Example 16, 1-[(2R,4R)-2-methyltetrahydro-2H-pyran-4-yl]-2-[(3R)-tetrahydrofuran-3-yl]-1H-imidazo[4,5-c]quinoline-8-carbonitrile]	16.2	10.6
CN1CC(n2c(C3CCC(F)C3)nc3cnc4ccc(C#N)cc4c32)C(F)(F)C1 (stereo not shown) [Example 58, 1-(4,4-difluoro-1-methylpyrrolidin-3-yl)-2-(3-fluorocyclopentyl)-1H-imidazo[4,5-c]quinoline-8-carbonitrile]	12.2	21.2
C[C@@H]1C[C@H](n2c([C@H]3CCOC3)nc3cnc4ccc(Cl)cc4c32)CCO1 [Example 4, 8-chloro-1-[(2R,4R)-2-methyltetrahydro-2H-pyran-4-yl]-2-[(3R)-tetrahydrofuran-3-yl]-1H-imidazo[4,5-c]quinoline]	12.3	7.4
C[C@@H]1C[C@H](n2c(C3CC(C)(F)C3)nc3cnc4ccc(Cl)cc4c32)CCO1 (stereo partly drawn) [Example 5, 8-chloro-2-(3-fluoro-3-methylcyclobutyl)-1-[(2R,4R)-2-methyltetrahydro-2H-pyran-4-yl]-1H-imidazo[4,5-c]quinoline]	16.4	17.2
C[C@@H]1C[C@H](n2c(C3CCC(F)(F)CC3)nc3cnc4ccc(C#N)cc4c32)CCO1 [Example 17, 2-(4,4-difluorocyclohexyl)-1-[(2R,4R)-2-methyltetrahydro-2H-pyran-4-yl]-1H-imidazo[4,5-c]quinoline-8-carbonitrile]	15.6	11.2
CC1(C)CC(n2c(C3CCC(F)C3)nc3cnc4ccc(C#N)cc4c32)CCO1 (stereo not shown) [Example 41, 1-(2,2-dimethyltetrahydro-2H-pyran-4-yl)-2-(3-fluorocyclopentyl)-1H-imidazo[4,5-c]quinoline-8-carbonitrile]	64.1	49.6
C[C@@H]1C[C@H](n2c3c(cnc4ccc(Cl)cc43)nc2[C@H]2CC[C@@H](F)CC2)CCO1 [Example 1, 8-chloro-2-(cis-4-fluorocyclohexyl)-1-[(2R,4R)-2-methyltetrahydro-2H-pyran-4-yl]-1H-imidazo[4,5-c]quinoline]	7.32	4.75
C[C@@H]1C[C@H](n2c3c(cnc4ccc(Cl)cc43)nc2[C@H]2C[C@@H](F)C2)CCO1 [Example 2, 8-chloro-2-(cis-3-fluorocyclobutyl)-1-[(2R,4R)-2-methyltetrahydro-2H-pyran-4-yl]-1H-imidazo[4,5-c]quinoline]	8.99	5.49
CC1(C)CC(n2c(C3CCC(F)C3)nc3cnc4ccc(C#N)cc4c32)CCO1 (stereo not shown) [Example 42, 1-(2,2-dimethyltetrahydro-2H-pyran-4-yl)-2-(3-fluorocyclopentyl)-1H-imidazo[4,5-c]quinoline-8-carbonitrile]	46.1	46
C[C@@H]1C[C@H](n2c(C3CC(C)(F)C3)nc3cnc4ccc(Cl)cc4c32)CCO1 (stereo partly drawn) [Example 3, 8-chloro-2-(cis-3-fluoro-3-methylcyclobutyl)-1-[(2R,4R)-2-methyltetrahydro-2H-pyran-4-yl]-1H-imidazo[4,5-c]quinoline]	6.81	5.44
N#CC[C@@H]1C[C@H](n2c3c(cnc4ccc(Cl)cc43)nc2[C@H]2CC[C@@H](F)CC2)CCO1 [Example 28, {(2S,4R)-4-[8-chloro-2-(cis-4-fluorocyclohexyl)-1H-imidazo[4,5-c]quinolin-1-yl]tetrahydro-2H-pyran-2-yl}acetonitrile]	9.71	5.12
CN1CC[C@@H](n2c3c(cnc4ccc(C#N)cc43)nc2[C@H]2C[C@@](C)(F)C2)C1 [Example 22, 2-(cis-3-fluoro-3-methylcyclobutyl)-1-[(3R)-1-methylpyrrolidin-3-yl]-1H-imidazo[4,5-c]quinoline-8-carbonitrile]	14.2	36.5
CC1CC(c2nc3cnc4ccc(Cl)cc4c3n2[C@@H]2CCO[C@H](C)C2)CO1 (stereo partly drawn) [Example 10, 8-chloro-2-(5-methyltetrahydrofuran-3-yl)-1-[(2R,4R)-2-methyltetrahydro-2H-pyran-4-yl]-1H-imidazo[4,5-c]quinoline]	23.1	23.3
C[C@@H]1C[C@H](n2c3c(cnc4ccc(C#N)cc43)nc2[C@H]2C[C@@](C)(F)C2)CCO1 [Example 18, 2-(cis-3-fluoro-3-methylcyclobutyl)-1-[(2R,4R)-2-methyltetrahydro-2H-pyran-4-yl]-1H-imidazo[4,5-c]quinoline-8-carbonitrile]	10.4	8.4
CN1CC(n2c(C3CCC(F)C3)nc3cnc4ccc(C#N)cc4c32)C(F)(F)C1 (stereo not shown) [Example 57, 1-(4,4-difluoro-1-methylpyrrolidin-3-yl)-2-(3-fluorocyclopentyl)-1H-imidazo[4,5-c]quinoline-8-carbonitrile]	4.54	5.94
N#CC[C@@H]1C[C@H](n2c(C3CC(F)(F)C3)nc3cnc4ccc(Cl)cc4c32)CCO1 (single isomer, unassigned) [Example 27, {cis-4-[8-chloro-2-(3,3-difluorocyclobutyl)-1H-imidazo[4,5-c]quinolin-1-yl]tetrahydro-2H-pyran-2-yl}acetonitrile]	12	12.2
CN1CC[C@@H](n2c(C3CCC(F)C3)nc3cnc4ccc(C#N)cc4c32)C1 (stereo partly drawn) [Example 33, 2-[cis-3-fluorocyclopentyl]-1-[(3R)-1-methylpyrrolidin-3-yl]-1H-imidazo[4,5-c]quinoline-8-carbonitrile]	6.56	4.3
C[C@@H]1C[C@H](n2c([C@H]3CCOC3)nc3cnc4ccc(C(F)(F)F)cc4c32)CCO1 [Example 26, 1-[(2R,4R)-2-methyltetrahydro-2H-pyran-4-yl]-2-[(3R)-tetrahydrofuran-3-yl]-8-(trifluoromethyl)-1H-imidazo[4,5-c]quinoline]	9.79	5.71
CC1(C)C[C@H](n2c([C@@H]3CC[C@H](F)C3)nc3cnc4ccc(C#N)cc4c32)CCO1 [Example 54, 1-[(4R)-2,2-dimethyltetrahydro-2H-pyran-4-yl]-2-[(1R,3S)-3-fluorocyclopentyl]-1H-imidazo[4,5-c]quinoline-8-carbonitrile]	> 3000	–

From patent publication US11161844B2, “Cyclic substituted imidazo[4,5-c]quinoline derivatives” (Pfizer Inc., priority 2017, dated 2021)
